Assay results as given in patent publication US5624906A, “Oral hygiene compositions comprising heteroatom containing alkyl aldonamide compounds” (Lever Brothers Company, Division of Conopco, Inc., priority 1994, dated 1997).

Columns and labels:
Krafft point = format: physicochemical; conditions: for Krafft Point (0.1%): 0.1% in water; for Krafft Point (1.0%): 1.0% in water
Method: The temperature at and above which surfactants begin to form micelles instead of precipitates is referred to as the Krafft point (Tk) and at this temperature the solubility of a surfactant becomes equal to its CMC (numerical value at which micelles are formed).
The Krafft point was measured by preparing 650 ml of a 0.1% or 1.0% dispersion of aldonamide in water by weight. If the surfactant was soluble at room temperature, the solution was slowly cooled to 0° C. […] (less than zero). If it precipitated out of solution, the temperature at which precipitation occurs was taken as the Krafft point.
If the surfactant was insoluble at room temperature, the dispersion was slowly heated until the solution became homogeneous. It was then slowly cooled until precipitation occurred. The temperature at which the surfactant precipitates out of solution upon cooling was taken as the Krafft point.

[1] = Ross-Miles foam height (Examples 81-84); format: physicochemical; conditions: for Foam Height Initial / Foam Height Final: 0.1% aldonamide, 40° C. (or 5-10° C. above Krafft point), 0 ppm hardness; for Foam Height Final: after 10 minutes; for Solubility: 0.1% in water
Method: In the Ross-Miles method, 200 mL of a surfactant solution contained in a pipette of specified dimensions with a 2.9-mm-i.d. orifice is allowed to fall 90 cm onto 50 mL of the same solution contained in a cylindrical vessel maintained at a given temperature by means of a water jacket. The height of the foam produced in the cylindrical vessel is read immediately after all the solution has run out of the pipette and then again after a given amount of time.
Using this method, the foam production (initial foam height in mm) and foam stability (final foam height after 10 minutes in mm) were measured at 0.1% aldonamide concentration, 40° C. and 0 ppm (parts per million) hardness.

Compound	Krafft Point (0.1%) (Krafft point) [°C]	Foam Height Initial [1] [mm]	Foam Height Final [1] [mm]	Krafft Point (1.0%) (Krafft point) [°C]	Solubility [1]
CCCCCCCCCCCCOC(=O)C(C)NC(=O)[C@H](O)[C@@H](O)[C@H](O)[C@H](O)CO (mixture of isomers) [N-D-Gluconyl C12 DL-Alaninate, N-D-Gluconyl Dodecyl DL-Alaninate]	53	–	–	–	–
CCCCCCCCCCCNC(=O)[C@H](O)[C@@H](O)[C@H](O)[C@H](O)CO [C11 D-Gluconamide]	87	–	–	–	–
CCCCCCCCCCCNC(=O)[C@H](O)[C@@H](O)[C@H](O[C@@H]1O[C@H](CO)[C@H](O)[C@H](O)[C@H]1O)[C@H](O)CO [C11 D-Lactobionamide]	–	0	0	61	–
CCCCCCCCCCCCNC(=O)[C@H](O)[C@H](O)[C@@H](O)[C@@H](O)CO [C12 L-Mannonamide]	> 100	–	–	–	Insoluble
CCCCCCCCCCCCOCCCNC(=O)[C@H](O)[C@@H](O)[C@H](O[C@H]1O[C@H](CO)[C@@H](O)[C@H](O)[C@H]1O)[C@H](O)CO [C12 Oxypropyl D-Maltobionamide, dodecyloxypropyl D-maltobionamide]	–	–	–	< 0	–
CCCCCCCCCCCCCNC(=O)[C@H](O)[C@@H](O)[C@H](O[C@@H]1O[C@H](CO)[C@H](O)[C@H](O)[C@H]1O)[C@H](O)CO [C13 D-Lactobionamide]	–	–	78	70	–
CCCCCCCCCCCCCCOCCCNC(=O)[C@H](O)[C@@H](O)[C@H](O[C@@H]1O[C@H](CO)[C@H](O)[C@H](O)[C@H]1O)[C@H](O)CO [C14 Oxypropyl D-Lactobionamide, tetradecyloxypropyl D-lactobionamide]	–	–	–	< 0	–
CCCCCCCCCCCCCCCNC(=O)[C@H](O)[C@@H](O)[C@H](O[C@@H]1O[C@H](CO)[C@H](O)[C@H](O)[C@H]1O)[C@H](O)CO [C15 D-Lactobionamide]	–	–	–	84	–
CCCCCCCCCCCCCCCCCCNC(=O)[C@H](O)[C@@H](O)[C@H](O)[C@H](O)CO [C18 D-Gluconamide]	> 100	–	–	–	Insoluble
CCCCCCCCCCCCOC(=O)CNC(=O)[C@H](O)[C@@H](O)[C@H](O[C@@H]1O[C@H](CO)[C@H](O)[C@H](O)[C@H]1O)[C@H](O)CO [D-Lactobionyl C12 Glycinate, N-D-lactobionyl dodecyl glycinate]	–	–	–	< 0	–
CCCCCCCCCCCCOC(=O)CCNC(=O)[C@H](O)[C@@H](O)[C@H](O[C@@H]1O[C@H](CO)[C@H](O)[C@H](O)[C@H]1O)[C@H](O)CO [D-Lactobionyl C12 β-Alaninate, N-D-lactobionyl dodecyl β-alaninate]	–	–	–	< 0	–
CCCCCCCCCCCC(=O)OCCNC(=O)[C@H](O)[C@@H](O)[C@H](O)[C@H](O)CO [N-D-Gluconyl C12 Ester of Ethanolamine, N-D-gluconyl dodecyl ester of ethanolamine]	63	–	–	–	–
CCCCCCCCCCCCOC(=O)CNC(=O)[C@H](O)[C@@H](O)[C@H](O)[C@H](O)CO [N-D-Gluconyl C12 Glycinate, N-D-gluconyl dodecyl glycinate]	63	–	–	–	–
CCCCCCCC/C=C\CCCCCCCCNCCCNC(=O)[C@H](O)[C@@H](O)[C@H](O)[C@H](O)CO [Oleylaminopropyl D-Gluconamide, oleylaminopropyl D-gluconamide]	< 0	–	84	–	–
CCCCCCCC/C=C\CCCCCCCCNCCCNC(=O)[C@H](O)[C@@H](O)[C@H](O[C@@H]1O[C@H](CO)[C@H](O)[C@H](O)[C@H]1O)[C@H](O)CO [Oleylaminopropyl D-Lactobionamide, oleylaminopropyl D-lactobionamide]	–	–	–	< 0	–
cocoaminopropyl D-lactobionamide	–	171	168	< 0	–
dodecyl to pentadecyloxypropyl D-lactobionamide [C12 -C15 Oxypropyl D-Lactobionamide]	–	166	155	< 0	–
dodecyl to pentadecyloxypropylaminopropyl D-gluconamide	< 0	180	–	–	–
dodecyl to pentadecyloxypropylaminopropyl D-lactobionamide	–	173	169	< 0	–

Next, values leading:

Krafft Point (0.1%) (Krafft point) [°C]	Foam Height Initial [1] [mm]	Foam Height Final [1] [mm]	Krafft Point (1.0%) (Krafft point) [°C]	Solubility [1]	Compound
< 0	0	0	–	–	CCCCCCCNC(=O)[C@H](O)[C@@H](O)[C@H](O)[C@H](O)CO [C7 D-Gluconamide]
12	0	0	–	–	CCCCCCCCNC(=O)[C@H](O)[C@@H](O)[C@H](O)[C@H](O)CO [C8 D-Gluconamide]
–	0	0	42	–	CCCCCCCCCNC(=O)[C@H](O)[C@@H](O)[C@H](O[C@@H]1O[C@H](CO)[C@H](O)[C@H](O)[C@H]1O)[C@H](O)CO [C9 D-Lactobionamide, nonyl D-lactobionamide]
> 100	–	–	–	Insoluble	CCCCCCCCCCCCNC(=O)[C@H](O)[C@@H](O)[C@@H](O)[C@H](O)CO [C12 D-Galactonamide]
91	–	–	–	–	CCCCCCCCCCCCNC(=O)[C@H](O)[C@H](O)[C@@H](O)[C@H](O)[C@H](O)CO [C12 D-Glucoheptonamide]
< 86	–	–	–	–	CCCCCCCCCCCCNC(=O)C(O)C(O)C(O)C(O)C(O)C(O)CO [C12 D-Glucooctonamide]
> 100	–	–	–	Insoluble	CCCCCCCCCCCCNC(=O)[C@H](O)[C@H](O)[C@@H](O)[C@@H](O)[C@H](O)CO [C12 D-Glycero-L-Mannoheptonamide]
–	–	20	38	–	CCCCCCCCCCCCNC(=O)[C@H](O)[C@@H](O)[C@H](O[C@@H]1O[C@H](CO)[C@H](O)[C@H](O)[C@H]1O)[C@H](O)CO [C12 D-Lactobionamide]
> 100	–	–	–	Insoluble	CCCCCCCCCCCCNC(=O)[C@@H](O)[C@H](O)[C@H](O)[C@@H](O)CO [C12 L-Galactonamide]
91	–	–	–	–	CCCCCCCCCCCCNC(=O)[C@@H](O)[C@H](O)[C@@H](O)[C@@H](O)CO [C12 L-Gluconamide]
73	–	80	–	–	CCCCCCCCCCCCOCCCNC(=O)[C@H](O)[C@H](O)[C@@H](O)[C@H](O)[C@H](O)CO [C12 Oxypropyl D-Glucoheptonamide]
54	–	–	–	–	CCCCCCCCCCCCNC(=O)[C@H](O)[C@H](O)[C@H](O)CO [C12 Ribonamide, dodecyl D-ribonamide]
> 100	–	–	–	Insoluble	CCCCCCCCCCCCCCNC(=O)[C@H](O)[C@@H](O)[C@H](O)[C@H](O)CO [C14 D-Gluconamide]
–	–	59	18	–	CCCCCCCCCCCCCCNC(=O)[C@H](O)[C@@H](O)[C@H](O[C@@H]1O[C@H](CO)[C@H](O)[C@H](O)[C@H]1O)[C@H](O)CO [C14 D-Lactobionamide]
–	–	140	46	–	CCCCCCCCCCCCCCNC(=O)[C@H](O)[C@@H](O)[C@H](O[C@H]1O[C@H](CO)[C@@H](O)[C@H](O)[C@H]1O)[C@H](O)CO [C14 D-Maltobionamide]
53	–	–	–	–	CCCCCCCCCCCCCCOCCCNC(=O)[C@H](O)[C@@H](O)[C@H](O)[C@H](O)CO [C14 Oxypropyl D-Gluconamide]
> 100	–	–	–	Insoluble	CCCCCCCCCCCCCCCCNC(=O)[C@H](O)[C@@H](O)[C@H](O)[C@H](O)CO [C16 D-Gluconamide]
–	95	95	64	–	CCCCCCCCCCCCCCCCNC(=O)[C@H](O)[C@@H](O)[C@H](O[C@@H]1O[C@H](CO)[C@H](O)[C@H](O)[C@H]1O)[C@H](O)CO [C16 D-Lactobionamide]
–	–	–	82	–	CCCCCCCCCCCCCCCCCCNC(=O)[C@H](O)[C@@H](O)[C@H](O[C@@H]1O[C@H](CO)[C@H](O)[C@H](O)[C@H]1O)[C@H](O)CO [C18 D-Lactobionamide]
< 0	0	0	–	–	CCCCC(CC)COCCCNC(=O)[C@H](O)[C@@H](O)[C@H](O)[C@H](O)CO (stereo partly drawn) [Ethylhexyloxypropyl D-Gluconamide]
< 0	–	–	–	–	CCCCCCCCCCCCOCCOCCOC(=O)CNC(=O)[C@H](O)[C@@H](O)[C@H](O)[C@H](O)CO [N-D-Gluconyl C12 Di(oxyethyl) Glycinate, N-D-Gluconyl Dodecyldi(oxyethyl) Glycinate]
58	200	110	–	–	dodecyl to pentadecyloxypropyl D-gluconamide [C12 -C15 Oxypropyl D-Gluconamide]
< 18	–	–	–	–	soyaaminopropyl D-gluconamide
